# From the NIST ThermoML archive (doi:10.1016/j.fluid.2008.03.020)
# ± gives the expanded uncertainty stated by the source.
# What was measured:
# [1] = Liquid
# [2] = refractive index (Na D-line) (dimensionless); settings: Liquid, Standard Abbe refractometry
Compound,mass density ([1]; 293.15 K) [kg/m3],refractive index ([2]; 293.15 K),mass density ([1]; 298.15 K) [kg/m3],refractive index ([2]; 298.15 K),further results
"ClC(Cl)C(Cl)Cl [1,1,2,2-tetrachloroethane]",1593 ± 4.5,1.494 ± 0.0007,–,–,vapor or sublimation pressure ([1]; 417.25 K): 95.5 ± 2 kPa
"ClCCCl [1,2-dichloroethane]",1252.9 ± 3.4,1.4196 ± 0.0007,–,–,vapor or sublimation pressure ([1]; 355.15 K): 95.5 ± 2 kPa
C=CC#N [acrylonitrile],–,–,800.3 ± 2,1.3887 ± 0.0007,vapor or sublimation pressure ([1]; 348.75 K): 95.5 ± 2 kPa
Clc1ccccc1 [chlorobenzene],–,–,1101 ± 3,1.5218 ± 0.0007,vapor or sublimation pressure ([1]; 402.85 K): 95.5 ± 2 kPa
O=[N+]([O-])c1ccccc1 [nitrobenzene],–,–,1198.3 ± 3.3,1.55 ± 0.0007,vapor or sublimation pressure ([1]; 481.45 K): 95.5 ± 2 kPa
